Experiment [1] addresses T1, Glutathione S-transferase omega-1 (Homo sapiens, UniProt P78417).
T1 sequence (P78417 whole entry): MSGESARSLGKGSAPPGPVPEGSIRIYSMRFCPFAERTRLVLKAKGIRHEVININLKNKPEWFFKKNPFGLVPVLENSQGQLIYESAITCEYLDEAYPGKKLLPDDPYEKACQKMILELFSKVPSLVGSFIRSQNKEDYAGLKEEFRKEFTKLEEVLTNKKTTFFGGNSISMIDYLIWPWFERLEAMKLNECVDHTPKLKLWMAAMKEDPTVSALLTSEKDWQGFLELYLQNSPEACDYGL
In words: Inhibition of human GSTO1-1 by MMA (V) reductase assay.

Experiment [2] addresses T1, Glutathione S-transferase omega-1. Briefly: Inhibition of GSTO1-1 (unknown origin) by enzymatic assay.
Experiment [3] concerns the target Glutathione S-transferase omega-1 (Homo sapiens) (UniProt P78417). Briefly: Inhibition of human GSTO1-1 expressed in HEK293 cells by CDNB-GSH conjugation assay.
The target of experiment [4] is Glutathione S-transferase P (Homo sapiens, UniProt P09211). Briefly: Inhibition of human GSTP1-1.
Experiment [5] has as its target T1, Glutathione S-transferase omega-1. Briefly: Inhibition of GSTO1-1 (unknown origin) pre-incubated for 1 hr before GSH addition by CDNB-GSH conjugation assay.
Experiment [6] shares this target. Briefly: Inhibition of GSTO1-1 (unknown origin) by 4-NPG substrate based assay.

Each structure is given as a SMILES string.

Glutathione S-transferase P, sequence (P09211 whole entry): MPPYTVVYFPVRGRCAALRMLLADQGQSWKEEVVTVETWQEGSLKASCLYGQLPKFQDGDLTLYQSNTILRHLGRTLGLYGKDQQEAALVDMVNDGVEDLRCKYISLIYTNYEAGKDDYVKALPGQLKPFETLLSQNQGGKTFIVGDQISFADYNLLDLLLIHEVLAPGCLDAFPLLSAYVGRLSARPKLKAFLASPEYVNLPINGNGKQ

As usually defined, the IC50 is the concentration that inhibits the measured activity by half. In experiment [1], `C[C@H](CCC(=O)O)[C@H]1CC[C@H]2[C@@H]3CC[C@@H]4C[C@H](O)CC[C@]4(C)[C@H]3C[C@H](O)[C@]12C` had an IC50 of 1020 µM. That is a millimolar value.
As to `CCN(CC)C(=O)SSC(=O)N(CC)CC`, the IC50 in experiment [2] is less than 0.4 µM.
For `CC(=O)Oc1ccc2c(c1)Oc1cc(OC(C)=O)ccc1C21OC(=O)c2cc(CCl)ccc21`, the IC50 in experiment [3] worked out at 0.0512 µM.
In experiment [1], `Cc1c(C)c2c(c(C)c1OC(=O)CCC(=O)O)CC[C@@](C)(CCC[C@H](C)CCC[C@H](C)CCCC(C)C)O2` [(+)-ALPHA-TOCOPHERYL SUCCINATE] returned a concentration for half-maximal inhibition (IC50) of 4 µM. This lies in the single-digit micromolar range.
In turn, `Cc1c(C)c2c(c(C)c1O)CC[C@@](C)(CCC[C@H](C)CCC[C@H](C)CCCC(C)C)O2` [ALPHA-TOCOPHEROL] had an IC50 in experiment [4] of 0.5 µM.
The molecule `CC(C)C[C@H](NC(=O)[C@H](CCc1ccccc1)NC(=O)CN1CCOCC1)C(=O)N[C@@H](Cc1ccccc1)C(=O)N[C@@H](CC(C)C)C(=O)[C@@]1(C)CO1` [CARFILZOMIB] had a 50% inhibitory concentration (IC50) in experiment [5] of 0.15 µM.
As to `CC(C)c1cc2c(c(O)c1O)[C@@]1(C(=O)O)CCCC(C)(C)[C@@H]1CC2` [CARNOSIC ACID], inhibition in experiment [6] was half-maximal at 62 µM (IC50).
`O=[N+]([O-])c1ccc(Cl)c([N+](=O)[O-])c1` [DINITROCHLOROBENZENE] had an IC50 in experiment [1] of 900 µM.
Same read-out and setting: the result for `C=C(CC)C(=O)c1ccc(OCC(=O)O)c(Cl)c1Cl` [ETHACRYNIC ACID] reads 25 µM.
`O=C1C=CC(O)(c2cc(=O)c3c(O)cc(O)cc3o2)C=C1` [PROTOAPIGENONE] returned an IC50 in experiment [6] of 1.6 µM.

The values are drawn from ChEMBL document CHEMBL4196096, “Reviewing Hit Discovery Literature for Difficult Targets: Glutathione Transferase Omega-1 as an Example” (J Med Chem, 2018).
